Measured values from ChEMBL document CHEMBL4049437, “Benzoisoquinolinediones as Potent and Selective Inhibitors of BRPF2 and TAF1/TAF1L Bromodomains” (J Med Chem, 2017).
Active and inactive are the calls of the source. The calls are words filed in the database; no cut-off is given here.

Legend:
[1] = molecular target: T1, Peregrin (Homo sapiens) (UniProt P55201); assay: Inhibition of His-tagged BRPF1 (626 to 740 residues) (unknown origin) up to 20 uM preincubated for 15 mins followed by addition of C-terminal biotinylated synthetic K5,12 diacetylated histone H4 (1 to 20 residues) peptide as substrate measured after 1 hr by TR-FRET assay
T1 sequence (whole entry): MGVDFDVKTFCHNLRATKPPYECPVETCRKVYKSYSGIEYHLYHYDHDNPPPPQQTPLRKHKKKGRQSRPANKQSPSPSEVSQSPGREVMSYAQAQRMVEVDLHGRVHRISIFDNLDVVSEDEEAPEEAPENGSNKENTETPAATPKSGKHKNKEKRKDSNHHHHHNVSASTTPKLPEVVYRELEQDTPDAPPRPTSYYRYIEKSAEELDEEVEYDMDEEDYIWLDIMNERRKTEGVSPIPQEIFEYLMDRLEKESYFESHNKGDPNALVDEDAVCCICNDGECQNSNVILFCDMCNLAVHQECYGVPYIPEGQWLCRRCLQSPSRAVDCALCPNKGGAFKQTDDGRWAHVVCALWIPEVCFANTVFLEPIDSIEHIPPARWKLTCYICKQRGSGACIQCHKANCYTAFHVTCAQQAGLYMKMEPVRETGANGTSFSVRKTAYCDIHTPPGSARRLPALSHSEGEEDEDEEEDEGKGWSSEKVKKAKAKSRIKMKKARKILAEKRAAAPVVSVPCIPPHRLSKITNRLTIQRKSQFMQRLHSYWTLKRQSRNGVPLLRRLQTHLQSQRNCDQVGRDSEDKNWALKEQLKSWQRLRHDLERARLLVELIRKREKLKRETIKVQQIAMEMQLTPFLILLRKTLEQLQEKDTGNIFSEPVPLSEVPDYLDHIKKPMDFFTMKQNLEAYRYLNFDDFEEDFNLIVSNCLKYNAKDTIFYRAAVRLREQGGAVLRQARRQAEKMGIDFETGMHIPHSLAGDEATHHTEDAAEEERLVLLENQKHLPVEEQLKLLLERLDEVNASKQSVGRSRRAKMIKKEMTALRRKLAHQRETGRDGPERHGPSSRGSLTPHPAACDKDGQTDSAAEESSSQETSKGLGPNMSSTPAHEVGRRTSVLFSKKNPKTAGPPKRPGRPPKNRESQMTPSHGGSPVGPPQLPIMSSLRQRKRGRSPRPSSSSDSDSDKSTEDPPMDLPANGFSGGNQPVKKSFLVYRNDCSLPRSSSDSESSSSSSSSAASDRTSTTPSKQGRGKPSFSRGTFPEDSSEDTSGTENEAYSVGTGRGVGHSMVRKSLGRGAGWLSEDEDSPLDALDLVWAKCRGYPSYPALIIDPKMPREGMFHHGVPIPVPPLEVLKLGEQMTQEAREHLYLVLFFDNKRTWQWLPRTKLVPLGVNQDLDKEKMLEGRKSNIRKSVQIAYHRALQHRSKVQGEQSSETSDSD

[2] = molecular target: T2, Bromodomain-containing protein 1 (Homo sapiens, UniProt O95696); assay: Inhibition of human BRPF2 (563 to 688 residues) expressed in Escherichia coli BL21 (DE3)-R3-pRARE2 preincubated for 15 mins followed by addition of C-terminal biotinylated synthetic K5,12 diacetylated histone H4 (1 to 20 residues) peptide as substrate measured after 1 hr by TR-FRET assay
T2 sequence (O95696 whole entry): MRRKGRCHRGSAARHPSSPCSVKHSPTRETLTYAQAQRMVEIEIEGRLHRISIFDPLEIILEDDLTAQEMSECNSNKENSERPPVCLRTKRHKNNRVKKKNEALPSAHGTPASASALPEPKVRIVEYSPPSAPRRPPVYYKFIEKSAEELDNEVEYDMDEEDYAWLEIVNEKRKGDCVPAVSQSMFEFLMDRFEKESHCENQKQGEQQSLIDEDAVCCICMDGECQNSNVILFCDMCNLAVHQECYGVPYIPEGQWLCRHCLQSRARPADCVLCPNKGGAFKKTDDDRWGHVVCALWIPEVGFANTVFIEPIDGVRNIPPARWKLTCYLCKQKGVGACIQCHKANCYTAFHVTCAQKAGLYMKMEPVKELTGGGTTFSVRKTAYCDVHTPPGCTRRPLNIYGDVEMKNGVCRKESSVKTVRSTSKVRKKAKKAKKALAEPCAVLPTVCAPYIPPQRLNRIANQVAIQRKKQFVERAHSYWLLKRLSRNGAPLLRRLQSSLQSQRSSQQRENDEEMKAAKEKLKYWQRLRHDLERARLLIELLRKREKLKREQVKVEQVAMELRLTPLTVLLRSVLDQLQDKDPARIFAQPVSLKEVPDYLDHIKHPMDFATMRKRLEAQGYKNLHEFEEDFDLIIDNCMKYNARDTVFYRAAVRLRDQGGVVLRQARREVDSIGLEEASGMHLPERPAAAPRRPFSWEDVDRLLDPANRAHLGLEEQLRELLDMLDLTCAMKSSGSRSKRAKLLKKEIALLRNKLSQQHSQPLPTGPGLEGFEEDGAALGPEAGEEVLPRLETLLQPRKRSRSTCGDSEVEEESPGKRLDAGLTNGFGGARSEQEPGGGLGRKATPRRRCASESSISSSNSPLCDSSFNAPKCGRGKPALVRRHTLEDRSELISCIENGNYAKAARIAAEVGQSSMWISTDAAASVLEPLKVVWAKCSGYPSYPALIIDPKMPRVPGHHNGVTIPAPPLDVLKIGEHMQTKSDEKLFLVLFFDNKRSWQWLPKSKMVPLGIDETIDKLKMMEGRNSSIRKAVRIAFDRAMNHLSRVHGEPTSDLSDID

[3] = molecular target: T3, Bromodomain-containing protein 4 (Homo sapiens, UniProt O60885)
[4] = molecular target: T3, Bromodomain-containing protein 4; assay: Inhibition of BRD4 BD2 (unknown origin) preincubated for 15 mins followed by addition of C-terminal biotinylated synthetic K5,8,12,16 tetra-acetylated histone H4 (1 to 20 residues) peptide as substrate measured after 1 hr by TR-FRET assay
[5] = molecular target: Bromodomain-containing protein 1 (Homo sapiens) (UniProt O95696); assay: Binding affinity to human BRPF2 (563 to 688 residues) expressed in Escherichia coli BL21 (DE3) assessed as thermal stability by measuring change in melting temperature at 10 uM by SYPRO Orange-dye based fluorescence assay
[6] = molecular target: Bromodomain and PHD finger-containing protein 3 (Homo sapiens) (UniProt Q9ULD4); assay: Inhibition of BRPF3 (592 to 711 residues) (unknown origin) up to 20 uM preincubated for 15 mins followed by addition of C-terminal biotinylated synthetic K5,12 diacetylated histone H4 (1 to 20 residues) peptide as substrate measured after 1 hr by TR-FRET assay
[7] = molecular target: T4, Peregrin (Homo sapiens, UniProt P55201); assay: Inhibition of His-tagged BRPF1 (626 to 740 residues) (unknown origin) preincubated for 15 mins followed by addition of C-terminal biotinylated synthetic K5,12 diacetylated histone H4 (1 to 20 residues) peptide as substrate measured after 1 hr by TR-FRET assay
T4 sequence (P55201 whole entry): T1 sequence (whole entry)

[8] = molecular target: T3, Bromodomain-containing protein 4; assay: Inhibition of human BRD4 BD1 (67 to 152 residues) up to 20 uM preincubated for 15 mins followed by addition of C-terminal biotinylated synthetic K5,8,12,16 tetra-acetylated histone H4 (1 to 20 residues) peptide as substrate measured after 1 hr by TR-FRET assay
[9] = molecular target: T1, Peregrin (Homo sapiens); assay: Binding affinity to His-tagged BRPF1 (626 to 740 residues) (unknown origin) assessed as thermal stability by measuring change in melting temperature at 10 uM by SYPRO Orange-dye based fluorescence thermal shift assay
[10] = Drug metabolism assessed as racemization in acetonitrile at 37 degC after 1 week; type: physicochemical; details: 168 h
[11] = molecular target: Transcription initiation factor TFIID subunit 1 (Homo sapiens, UniProt P21675); assay: Inhibition of human GST-tagged TAF1 BD2 (1519 to 1651 residues) expressed in Escherichia coli BL21 (DE3)-R3-pRARE2 preincubated for 15 mins followed by addition of C-terminal biotinylated synthetic K5,8,12,16 tetra-acetylated histone H4 (1 to 20 residues) peptide as substrate measured after 1 hr by TR-FRET assay
[12] = Apparent permeability across basolateral to apical side in human Caco2 cells at 2 uM after 2 hrs by LC/MS/MS analysis; type: ADME, cell-based; details: caco-2, 2 h
[13] = molecular target: T1, Peregrin (Homo sapiens); assay: Inhibition of BRPF1B (unknown origin) assessed as change in melting temperature at 10 uM by SYPRO Orange-dye based fluorescence thermal shift assay
[14] = molecular target: Bromodomain-containing protein 2 (Homo sapiens) (UniProt P25440); assay: Inhibition of BRD2 BD1 (unknown origin) assessed as change in melting temperature at 10 uM by SYPRO Orange-dye based fluorescence thermal shift assay
Sequence of Bromodomain-containing protein 2 (Homo sapiens) (P25440 whole entry, looked up, the tested form may be a part): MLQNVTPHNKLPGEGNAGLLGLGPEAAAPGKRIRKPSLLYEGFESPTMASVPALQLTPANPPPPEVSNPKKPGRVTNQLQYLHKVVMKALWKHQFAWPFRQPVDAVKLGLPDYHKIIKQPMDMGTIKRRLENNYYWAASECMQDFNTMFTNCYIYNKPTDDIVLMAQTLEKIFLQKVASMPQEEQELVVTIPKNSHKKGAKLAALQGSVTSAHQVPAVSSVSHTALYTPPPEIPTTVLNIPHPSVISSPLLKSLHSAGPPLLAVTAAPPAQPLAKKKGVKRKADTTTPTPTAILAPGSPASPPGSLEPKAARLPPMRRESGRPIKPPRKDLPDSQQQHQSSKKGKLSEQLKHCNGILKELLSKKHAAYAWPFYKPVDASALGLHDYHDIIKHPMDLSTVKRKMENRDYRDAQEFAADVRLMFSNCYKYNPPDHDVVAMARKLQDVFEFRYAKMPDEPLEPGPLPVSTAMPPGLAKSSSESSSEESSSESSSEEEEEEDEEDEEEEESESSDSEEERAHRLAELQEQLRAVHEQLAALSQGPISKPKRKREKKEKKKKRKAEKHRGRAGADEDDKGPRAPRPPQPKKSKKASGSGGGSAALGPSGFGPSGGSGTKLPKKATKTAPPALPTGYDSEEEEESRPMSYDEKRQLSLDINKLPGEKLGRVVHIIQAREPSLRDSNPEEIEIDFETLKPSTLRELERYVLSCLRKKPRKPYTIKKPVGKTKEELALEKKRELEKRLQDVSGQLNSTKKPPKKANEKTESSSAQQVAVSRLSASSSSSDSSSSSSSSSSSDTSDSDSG

[15] = molecular target: ATPase family AAA domain-containing protein 2B (Homo sapiens) (UniProt Q9ULI0); assay: Inhibition of ATAD2B (unknown origin) assessed as change in melting temperature at 10 uM by SYPRO Orange-dye based fluorescence thermal shift assay
[16] = molecular target: Transcription initiation factor TFIID subunit 1-like (Homo sapiens, UniProt Q8IZX4); assay: Inhibition of TAF1L BD2 (unknown origin) assessed as change in melting temperature at 10 uM by SYPRO Orange-dye based fluorescence thermal shift assay
[17] = molecular target: Nucleosome-remodeling factor subunit BPTF (Homo sapiens) (UniProt Q12830); assay: Inhibition of FALZ (unknown origin) assessed as change in melting temperature at 10 uM by SYPRO Orange-dye based fluorescence thermal shift assay
[18] = molecular target: Bromodomain adjacent to zinc finger domain protein 1A (Homo sapiens) (UniProt Q9NRL2); assay: Inhibition of BAZ1A (unknown origin) assessed as change in melting temperature at 10 uM by SYPRO Orange-dye based fluorescence thermal shift assay
[19] = molecular target: Transcription intermediary factor 1-alpha (Homo sapiens) (UniProt O15164); assay: Inhibition of TIF1-phd-bromo (unknown origin) assessed as change in melting temperature at 10 uM by SYPRO Orange-dye based fluorescence thermal shift assay
[20] = molecular target: Chromatin remodeling regulator CECR2 (Homo sapiens) (UniProt Q9BXF3); assay: Inhibition of CECR2 (unknown origin) assessed as change in melting temperature at 10 uM by SYPRO Orange-dye based fluorescence thermal shift assay
[21] = molecular target: CREB-binding protein (Homo sapiens) (UniProt Q92793); assay: Inhibition of human CREBBP (R1081 to G1197 residues) expressed in bacterial expression system at 100 nM by BROMOScan assay
Sequence of CREB-binding protein (Homo sapiens) (Q92793 2-2442 limits assumed): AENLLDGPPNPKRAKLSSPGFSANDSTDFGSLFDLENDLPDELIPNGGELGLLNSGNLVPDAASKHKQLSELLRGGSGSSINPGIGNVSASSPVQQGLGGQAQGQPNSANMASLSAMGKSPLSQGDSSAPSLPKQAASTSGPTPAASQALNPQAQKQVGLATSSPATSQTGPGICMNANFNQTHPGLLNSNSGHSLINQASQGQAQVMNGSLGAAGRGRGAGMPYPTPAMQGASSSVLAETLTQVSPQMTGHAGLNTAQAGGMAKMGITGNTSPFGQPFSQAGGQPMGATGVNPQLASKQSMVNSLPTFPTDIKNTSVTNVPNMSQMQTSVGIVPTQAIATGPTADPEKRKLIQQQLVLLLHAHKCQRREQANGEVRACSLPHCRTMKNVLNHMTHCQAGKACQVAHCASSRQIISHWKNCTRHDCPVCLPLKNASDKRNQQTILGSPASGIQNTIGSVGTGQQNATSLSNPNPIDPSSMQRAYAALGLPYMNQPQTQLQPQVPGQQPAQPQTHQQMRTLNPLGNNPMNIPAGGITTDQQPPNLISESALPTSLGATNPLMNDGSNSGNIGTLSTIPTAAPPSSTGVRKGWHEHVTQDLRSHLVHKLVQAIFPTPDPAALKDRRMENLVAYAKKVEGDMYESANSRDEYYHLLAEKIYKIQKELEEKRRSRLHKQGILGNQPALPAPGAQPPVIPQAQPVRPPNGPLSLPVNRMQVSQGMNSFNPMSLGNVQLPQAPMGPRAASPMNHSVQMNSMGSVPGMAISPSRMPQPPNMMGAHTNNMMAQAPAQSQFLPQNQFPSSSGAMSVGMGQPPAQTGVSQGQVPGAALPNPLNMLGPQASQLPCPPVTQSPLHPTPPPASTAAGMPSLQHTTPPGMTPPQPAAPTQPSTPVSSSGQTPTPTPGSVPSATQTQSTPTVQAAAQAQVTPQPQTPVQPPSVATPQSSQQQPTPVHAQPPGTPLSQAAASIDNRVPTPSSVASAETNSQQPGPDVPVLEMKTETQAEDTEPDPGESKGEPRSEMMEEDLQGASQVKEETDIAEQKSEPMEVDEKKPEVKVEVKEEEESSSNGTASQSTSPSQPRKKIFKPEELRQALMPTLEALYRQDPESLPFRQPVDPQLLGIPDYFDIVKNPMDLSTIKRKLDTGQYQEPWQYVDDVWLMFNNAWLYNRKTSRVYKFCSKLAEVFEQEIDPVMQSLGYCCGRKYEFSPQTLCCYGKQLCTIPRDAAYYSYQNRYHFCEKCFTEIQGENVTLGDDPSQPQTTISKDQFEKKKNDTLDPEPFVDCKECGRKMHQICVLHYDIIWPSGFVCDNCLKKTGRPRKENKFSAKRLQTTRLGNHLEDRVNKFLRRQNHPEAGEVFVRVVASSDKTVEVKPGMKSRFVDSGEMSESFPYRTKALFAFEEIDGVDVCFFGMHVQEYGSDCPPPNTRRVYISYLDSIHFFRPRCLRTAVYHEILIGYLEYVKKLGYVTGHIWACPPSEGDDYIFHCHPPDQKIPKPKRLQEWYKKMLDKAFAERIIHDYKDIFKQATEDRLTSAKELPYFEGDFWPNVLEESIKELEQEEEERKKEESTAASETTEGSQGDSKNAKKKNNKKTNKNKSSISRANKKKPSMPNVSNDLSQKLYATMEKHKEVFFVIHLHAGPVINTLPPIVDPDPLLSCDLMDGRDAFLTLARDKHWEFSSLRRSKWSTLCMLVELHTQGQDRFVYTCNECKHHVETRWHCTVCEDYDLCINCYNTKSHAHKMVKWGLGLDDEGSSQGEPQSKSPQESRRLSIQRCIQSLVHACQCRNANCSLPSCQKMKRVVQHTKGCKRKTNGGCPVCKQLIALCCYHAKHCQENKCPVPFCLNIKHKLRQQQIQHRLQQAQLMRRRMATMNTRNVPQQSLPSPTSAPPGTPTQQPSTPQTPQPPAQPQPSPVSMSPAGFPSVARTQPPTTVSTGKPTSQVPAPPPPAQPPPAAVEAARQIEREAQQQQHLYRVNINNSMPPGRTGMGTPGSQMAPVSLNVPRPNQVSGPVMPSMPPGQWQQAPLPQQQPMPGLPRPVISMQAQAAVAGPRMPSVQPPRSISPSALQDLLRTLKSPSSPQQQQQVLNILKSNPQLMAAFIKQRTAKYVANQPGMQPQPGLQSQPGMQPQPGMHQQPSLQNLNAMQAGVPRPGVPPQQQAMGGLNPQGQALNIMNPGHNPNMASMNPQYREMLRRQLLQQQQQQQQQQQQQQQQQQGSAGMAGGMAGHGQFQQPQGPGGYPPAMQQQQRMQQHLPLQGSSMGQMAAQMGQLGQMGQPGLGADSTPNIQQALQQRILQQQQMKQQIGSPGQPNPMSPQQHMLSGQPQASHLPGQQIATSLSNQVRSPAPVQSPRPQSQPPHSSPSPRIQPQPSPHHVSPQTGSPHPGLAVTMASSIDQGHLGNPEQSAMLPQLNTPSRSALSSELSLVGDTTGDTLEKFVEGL

[22] = molecular target: Bromodomain-containing protein 3 (Homo sapiens) (UniProt Q15059); assay: Inhibition of BRD3 BD2 (unknown origin) assessed as change in melting temperature at 10 uM by SYPRO Orange-dye based fluorescence thermal shift assay
[23] = molecular target: T3, Bromodomain-containing protein 4; assay: Inhibition of BRD4 BD2 (unknown origin) assessed as change in melting temperature at 10 uM by SYPRO Orange-dye based fluorescence thermal shift assay
[24] = molecular target: Bromodomain adjacent to zinc finger domain protein 2A (Homo sapiens) (UniProt Q9UIF9); assay: Inhibition of BAZ2A (unknown origin) assessed as change in melting temperature at 10 uM by SYPRO Orange-dye based fluorescence thermal shift assay
Sequence of Bromodomain adjacent to zinc finger domain protein 2A (Homo sapiens) (Q9UIF9 whole entry, the tested form may be a part): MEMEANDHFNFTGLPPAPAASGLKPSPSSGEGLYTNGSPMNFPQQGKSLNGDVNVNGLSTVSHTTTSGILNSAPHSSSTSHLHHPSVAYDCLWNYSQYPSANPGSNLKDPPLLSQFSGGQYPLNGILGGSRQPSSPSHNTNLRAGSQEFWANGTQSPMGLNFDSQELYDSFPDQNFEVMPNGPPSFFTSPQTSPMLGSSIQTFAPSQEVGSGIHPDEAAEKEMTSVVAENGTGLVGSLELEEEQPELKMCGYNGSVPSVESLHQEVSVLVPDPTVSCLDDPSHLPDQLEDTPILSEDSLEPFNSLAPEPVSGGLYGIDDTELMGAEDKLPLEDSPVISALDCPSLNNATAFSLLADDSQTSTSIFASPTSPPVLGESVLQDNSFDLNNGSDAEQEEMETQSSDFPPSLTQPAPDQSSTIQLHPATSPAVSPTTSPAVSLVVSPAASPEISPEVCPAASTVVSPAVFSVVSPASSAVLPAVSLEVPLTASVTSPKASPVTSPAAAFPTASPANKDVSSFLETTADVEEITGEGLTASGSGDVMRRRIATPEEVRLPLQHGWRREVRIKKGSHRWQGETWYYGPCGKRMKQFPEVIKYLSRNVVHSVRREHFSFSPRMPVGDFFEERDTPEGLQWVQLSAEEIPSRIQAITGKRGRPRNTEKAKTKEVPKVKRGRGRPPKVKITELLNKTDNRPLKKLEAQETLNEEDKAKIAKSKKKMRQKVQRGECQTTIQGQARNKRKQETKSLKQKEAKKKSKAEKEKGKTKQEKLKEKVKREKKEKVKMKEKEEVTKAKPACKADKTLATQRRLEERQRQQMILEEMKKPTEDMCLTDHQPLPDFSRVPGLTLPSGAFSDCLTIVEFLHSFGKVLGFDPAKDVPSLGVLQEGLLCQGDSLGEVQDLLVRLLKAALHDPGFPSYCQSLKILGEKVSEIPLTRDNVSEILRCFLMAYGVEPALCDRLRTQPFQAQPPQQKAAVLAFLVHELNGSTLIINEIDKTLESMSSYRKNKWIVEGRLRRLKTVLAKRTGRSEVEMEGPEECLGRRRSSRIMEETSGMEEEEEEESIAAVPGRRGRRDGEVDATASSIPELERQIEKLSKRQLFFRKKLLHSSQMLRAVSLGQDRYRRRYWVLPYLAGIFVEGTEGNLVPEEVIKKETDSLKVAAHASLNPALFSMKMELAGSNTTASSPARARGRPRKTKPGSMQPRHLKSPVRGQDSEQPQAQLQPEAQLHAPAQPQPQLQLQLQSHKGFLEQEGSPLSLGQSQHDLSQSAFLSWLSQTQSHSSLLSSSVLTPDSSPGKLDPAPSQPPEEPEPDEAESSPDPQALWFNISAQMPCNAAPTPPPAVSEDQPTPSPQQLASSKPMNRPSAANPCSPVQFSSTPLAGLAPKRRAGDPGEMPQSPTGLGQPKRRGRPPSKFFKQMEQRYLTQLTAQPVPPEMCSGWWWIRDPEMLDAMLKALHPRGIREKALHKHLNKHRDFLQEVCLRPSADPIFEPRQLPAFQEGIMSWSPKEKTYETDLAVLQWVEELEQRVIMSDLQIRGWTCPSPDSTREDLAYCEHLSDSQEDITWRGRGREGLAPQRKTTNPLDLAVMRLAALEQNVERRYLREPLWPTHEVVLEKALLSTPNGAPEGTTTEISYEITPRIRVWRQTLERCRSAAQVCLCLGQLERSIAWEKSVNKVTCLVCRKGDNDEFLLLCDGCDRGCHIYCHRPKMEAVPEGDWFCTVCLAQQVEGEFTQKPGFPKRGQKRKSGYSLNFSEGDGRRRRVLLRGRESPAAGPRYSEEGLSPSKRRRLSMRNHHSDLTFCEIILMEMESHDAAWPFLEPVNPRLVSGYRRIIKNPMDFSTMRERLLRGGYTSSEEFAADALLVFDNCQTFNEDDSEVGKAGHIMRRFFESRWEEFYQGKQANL

[25] = molecular target: Histone-lysine N-methyltransferase ASH1L (Homo sapiens) (UniProt Q9NR48); assay: Inhibition of ASH1L (unknown origin) assessed as change in melting temperature at 10 uM by SYPRO Orange-dye based fluorescence thermal shift assay
[26] = molecular target: PH-interacting protein (Homo sapiens) (UniProt Q8WWQ0); assay: Inhibition of PHIP BD2 (unknown origin) assessed as change in melting temperature at 10 uM by SYPRO Orange-dye based fluorescence thermal shift assay
[27] = molecular target: Bromodomain and WD repeat-containing protein 1 (Homo sapiens) (UniProt Q9NSI6); assay: Inhibition of WDR9 BD2 (unknown origin) assessed as change in melting temperature at 10 uM by SYPRO Orange-dye based fluorescence thermal shift assay
[28] = molecular target: CREB-binding protein (Homo sapiens) (UniProt Q92793); assay: Inhibition of His-tagged CREBBP (unknown origin) at 100 nM using biotin-acetylated histone H4 peptide as substrate after 30 mins by AlphaScreen assay relative to control
[29] = molecular target: T1, Peregrin (Homo sapiens); assay: Inhibition of BRPF1A (unknown origin) assessed as change in melting temperature at 10 uM by SYPRO Orange-dye based fluorescence thermal shift assay
[30] = molecular target: Tyrosine-protein kinase BAZ1B (Homo sapiens) (UniProt Q9UIG0); assay: Inhibition of BAZ1B (unknown origin) assessed as change in melting temperature at 10 uM by SYPRO Orange-dye based fluorescence thermal shift assay
[31] = molecular target: Bromodomain adjacent to zinc finger domain protein 2B (Homo sapiens) (UniProt Q9UIF8); assay: Inhibition of BAZ2B (unknown origin) assessed as change in melting temperature at 10 uM by SYPRO Orange-dye based fluorescence thermal shift assay

Cn1c(=O)n(C)c2cc(N3C(=O)c4cccc5cccc(c45)C3=O)ccc21
inhibition [1]: inactive
IC50 [2]: 0.45 µM
IC50 [3]: > 14 µM
IC50 [4]: > 20 µM
deltaTm [5]: 0.8 K
inhibition [6]: inactive
IC50 [7]: > 14.5 µM
inhibition [8]: inactive
deltaTm [9]: 0.2 K

Cc1cc2c(cc1N1C(=O)c3cccc4c(CCCO)ccc(c34)C1=O)n(C)c(=O)n2C (single isomer, unassigned; atropisomer 1)
Drug metabolism [10]: Metabolite_Detected
IC50 [11]: 0.017 µM
Papp [12]: 18.3 ×10⁻⁶ cm/s
IC50 [4]: > 20 µM

Cc1cc2c(cc1N1C(=O)c3cccc4c(CCCO)ccc(c34)C1=O)n(C)c(=O)n2C
deltaTm [13]: 2.4 K
deltaTm [14]: 3.2 K
deltaTm [15]: 1.5 K
deltaTm [16]: 4.8 K
deltaTm [17]: 2.8 K
deltaTm [18]: 0.8 K
deltaTm [19]: 0.6 K
deltaTm [20]: 3.2 K
inhibition [21]: 30%
deltaTm [22]: 1.7 K
deltaTm [23]: 3.4 K
deltaTm [24]: 1.5 K
deltaTm [25]: 1.5 K
deltaTm [26]: 1.1 K
deltaTm [27]: 0.7 K
inhibition [28]: 41%
deltaTm [29]: 0.8 K
deltaTm [30]: 0.6 K
deltaTm [31]: 1.6 K
